Test results published in publication PMC8213057, “Targeting ALK2: An Open Science Approach to Developing Therapeutics for the Treatment of Diffuse Intrinsic Pontine Glioma” (Journal of Medicinal Chemistry, 2020).
“And” between values parts separate entries of the source, which are not always exact repeats. Equal values may be shown once.

Experiments:
CDK5/p35 = CDK5/p35 (Homo sapiens, UniProt Q00535); settings: 1 μM; Run 1, Run 2
MAK = target: T1, MAK (Homo sapiens, UniProt P20794); settings: 1 μM; Run 1, Run 2
T1 sequence (P20794 1-623): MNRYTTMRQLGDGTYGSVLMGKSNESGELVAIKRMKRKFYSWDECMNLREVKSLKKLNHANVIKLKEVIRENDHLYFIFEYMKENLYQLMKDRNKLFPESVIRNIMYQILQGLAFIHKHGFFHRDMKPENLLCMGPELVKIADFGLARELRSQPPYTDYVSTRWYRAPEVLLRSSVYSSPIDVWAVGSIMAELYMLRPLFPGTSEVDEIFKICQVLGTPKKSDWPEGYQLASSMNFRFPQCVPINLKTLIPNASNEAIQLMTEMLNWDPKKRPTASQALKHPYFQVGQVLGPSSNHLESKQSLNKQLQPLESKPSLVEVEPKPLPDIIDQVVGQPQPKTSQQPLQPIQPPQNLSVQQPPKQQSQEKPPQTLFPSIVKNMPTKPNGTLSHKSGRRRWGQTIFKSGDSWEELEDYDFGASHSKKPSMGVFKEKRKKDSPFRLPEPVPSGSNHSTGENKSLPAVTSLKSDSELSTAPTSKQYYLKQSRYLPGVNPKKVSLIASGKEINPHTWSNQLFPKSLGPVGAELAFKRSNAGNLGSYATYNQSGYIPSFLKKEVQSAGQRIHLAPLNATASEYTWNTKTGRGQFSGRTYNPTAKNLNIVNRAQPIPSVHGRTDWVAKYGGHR

P38d/MAPK13 = target: T2, P38d/MAPK13 (Homo sapiens, UniProt O15264); settings: 1 μM; Run 1, Run 2
T2 sequence (O15264 1-365): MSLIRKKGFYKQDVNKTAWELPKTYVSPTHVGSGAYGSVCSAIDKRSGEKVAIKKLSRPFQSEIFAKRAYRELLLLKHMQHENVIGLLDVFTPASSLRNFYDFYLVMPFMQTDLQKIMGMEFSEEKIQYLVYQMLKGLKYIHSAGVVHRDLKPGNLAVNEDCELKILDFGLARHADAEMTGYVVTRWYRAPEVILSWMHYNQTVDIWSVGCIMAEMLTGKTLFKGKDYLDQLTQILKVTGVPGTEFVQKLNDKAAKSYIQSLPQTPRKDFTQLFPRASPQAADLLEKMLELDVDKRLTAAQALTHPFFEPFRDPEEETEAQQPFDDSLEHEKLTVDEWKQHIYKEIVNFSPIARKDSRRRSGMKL

PAK3 = PAK3 (Homo sapiens, UniProt O75914); settings: 1 μM; Run 1, Run 2
STK38/NDR1 = STK38/NDR1 (Homo sapiens, UniProt Q15208); settings: 1 μM; Run 1, Run 2
c-MER = target: T3, c-MER (Homo sapiens, UniProt Q12866); assay: biochemical; settings: read-out: % enzyme activity, 1 μM; Run 1, Run 2
T3 sequence (Q12866 21-999): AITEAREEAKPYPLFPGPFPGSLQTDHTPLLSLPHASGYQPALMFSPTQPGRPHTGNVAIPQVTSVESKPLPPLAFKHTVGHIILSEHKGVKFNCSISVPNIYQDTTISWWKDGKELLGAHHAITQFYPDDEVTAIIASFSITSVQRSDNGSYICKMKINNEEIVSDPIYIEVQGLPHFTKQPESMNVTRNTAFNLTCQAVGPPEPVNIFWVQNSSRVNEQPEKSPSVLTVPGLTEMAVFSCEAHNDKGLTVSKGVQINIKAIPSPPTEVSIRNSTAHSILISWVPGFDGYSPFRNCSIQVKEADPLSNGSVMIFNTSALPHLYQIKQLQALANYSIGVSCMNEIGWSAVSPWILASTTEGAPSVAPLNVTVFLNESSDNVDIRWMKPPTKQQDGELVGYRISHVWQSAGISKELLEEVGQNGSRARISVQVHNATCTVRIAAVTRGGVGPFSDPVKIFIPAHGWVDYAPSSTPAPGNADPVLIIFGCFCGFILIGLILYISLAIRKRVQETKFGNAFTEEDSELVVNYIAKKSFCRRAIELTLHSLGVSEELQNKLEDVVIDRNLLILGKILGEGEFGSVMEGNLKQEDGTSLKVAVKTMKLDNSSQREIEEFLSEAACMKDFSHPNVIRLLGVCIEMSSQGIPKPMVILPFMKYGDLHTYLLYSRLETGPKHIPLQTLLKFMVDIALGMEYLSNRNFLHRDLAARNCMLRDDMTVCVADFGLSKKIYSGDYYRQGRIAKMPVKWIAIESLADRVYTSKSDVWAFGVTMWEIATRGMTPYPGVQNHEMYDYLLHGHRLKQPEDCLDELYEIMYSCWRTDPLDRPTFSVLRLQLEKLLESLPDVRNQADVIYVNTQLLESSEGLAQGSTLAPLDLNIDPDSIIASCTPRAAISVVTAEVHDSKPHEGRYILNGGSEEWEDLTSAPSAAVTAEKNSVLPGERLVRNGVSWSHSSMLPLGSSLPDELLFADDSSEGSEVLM

CDK3/cyclin E2 = CDK3/cyclin E2 (Homo sapiens, UniProt Q00526); assay: biochemical; settings: read-out: % enzyme activity, 1 μM; Run 1, Run 2
PKMYT1 = target: T4, PKMYT1 (Homo sapiens, UniProt Q99640); assay: biochemical; settings: read-out: % enzyme activity, 1 μM; Run 1, Run 2
T4 sequence (Q99640 1-499): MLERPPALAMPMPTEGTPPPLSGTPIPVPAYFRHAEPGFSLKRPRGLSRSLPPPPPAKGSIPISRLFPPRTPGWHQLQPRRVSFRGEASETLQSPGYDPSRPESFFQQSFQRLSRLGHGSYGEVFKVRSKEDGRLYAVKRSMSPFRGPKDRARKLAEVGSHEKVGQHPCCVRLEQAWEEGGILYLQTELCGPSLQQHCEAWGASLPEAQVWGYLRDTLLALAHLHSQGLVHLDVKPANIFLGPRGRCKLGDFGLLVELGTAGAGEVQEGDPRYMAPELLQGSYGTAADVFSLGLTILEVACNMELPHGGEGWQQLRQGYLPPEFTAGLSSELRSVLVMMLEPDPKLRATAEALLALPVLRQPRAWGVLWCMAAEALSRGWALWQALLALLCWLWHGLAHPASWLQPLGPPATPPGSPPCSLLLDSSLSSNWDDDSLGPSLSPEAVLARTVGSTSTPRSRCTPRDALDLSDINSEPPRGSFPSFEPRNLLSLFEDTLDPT

STK38L/NDR2 = STK38L/NDR2 (Homo sapiens, UniProt Q9Y2H1); assay: biochemical; settings: read-out: % enzyme activity, 1 μM; Run 1, Run 2
Chain of STK38L/NDR2 (Q9Y2H1 whole entry): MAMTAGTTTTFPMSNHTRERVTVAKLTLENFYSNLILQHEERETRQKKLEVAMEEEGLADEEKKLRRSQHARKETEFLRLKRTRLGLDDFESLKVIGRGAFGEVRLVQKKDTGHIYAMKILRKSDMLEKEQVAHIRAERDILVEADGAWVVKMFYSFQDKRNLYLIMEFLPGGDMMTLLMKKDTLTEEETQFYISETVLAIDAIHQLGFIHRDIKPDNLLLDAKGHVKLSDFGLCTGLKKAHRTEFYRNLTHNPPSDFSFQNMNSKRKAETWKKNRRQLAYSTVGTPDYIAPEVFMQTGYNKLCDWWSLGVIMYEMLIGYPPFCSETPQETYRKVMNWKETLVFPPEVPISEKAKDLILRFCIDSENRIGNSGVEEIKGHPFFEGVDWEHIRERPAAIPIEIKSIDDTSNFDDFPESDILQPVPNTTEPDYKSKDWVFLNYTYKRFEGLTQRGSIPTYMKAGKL

Chain of CDK3/cyclin E2 (Q00526 whole entry): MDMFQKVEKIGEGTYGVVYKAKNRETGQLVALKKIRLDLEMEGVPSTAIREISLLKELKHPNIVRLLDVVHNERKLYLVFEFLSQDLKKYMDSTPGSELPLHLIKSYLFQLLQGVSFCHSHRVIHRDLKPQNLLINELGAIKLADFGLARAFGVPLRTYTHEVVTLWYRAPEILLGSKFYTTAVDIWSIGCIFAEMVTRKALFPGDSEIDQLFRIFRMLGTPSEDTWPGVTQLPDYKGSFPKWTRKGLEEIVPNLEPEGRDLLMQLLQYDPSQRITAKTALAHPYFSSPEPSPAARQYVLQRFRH
Chain of CDK3/cyclin E2 (O96020 whole entry partner): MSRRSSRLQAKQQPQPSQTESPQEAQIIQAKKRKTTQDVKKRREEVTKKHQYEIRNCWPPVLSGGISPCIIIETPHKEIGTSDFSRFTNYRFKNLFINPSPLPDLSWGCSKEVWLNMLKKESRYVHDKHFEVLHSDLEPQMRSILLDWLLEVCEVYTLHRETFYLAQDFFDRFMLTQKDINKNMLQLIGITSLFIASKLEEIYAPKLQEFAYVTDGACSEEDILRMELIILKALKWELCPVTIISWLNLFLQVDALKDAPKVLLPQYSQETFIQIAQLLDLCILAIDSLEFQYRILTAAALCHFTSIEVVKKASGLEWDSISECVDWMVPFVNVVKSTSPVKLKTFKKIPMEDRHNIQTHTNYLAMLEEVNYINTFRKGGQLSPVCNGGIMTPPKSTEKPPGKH
Chain of PAK3 (O75914 whole entry): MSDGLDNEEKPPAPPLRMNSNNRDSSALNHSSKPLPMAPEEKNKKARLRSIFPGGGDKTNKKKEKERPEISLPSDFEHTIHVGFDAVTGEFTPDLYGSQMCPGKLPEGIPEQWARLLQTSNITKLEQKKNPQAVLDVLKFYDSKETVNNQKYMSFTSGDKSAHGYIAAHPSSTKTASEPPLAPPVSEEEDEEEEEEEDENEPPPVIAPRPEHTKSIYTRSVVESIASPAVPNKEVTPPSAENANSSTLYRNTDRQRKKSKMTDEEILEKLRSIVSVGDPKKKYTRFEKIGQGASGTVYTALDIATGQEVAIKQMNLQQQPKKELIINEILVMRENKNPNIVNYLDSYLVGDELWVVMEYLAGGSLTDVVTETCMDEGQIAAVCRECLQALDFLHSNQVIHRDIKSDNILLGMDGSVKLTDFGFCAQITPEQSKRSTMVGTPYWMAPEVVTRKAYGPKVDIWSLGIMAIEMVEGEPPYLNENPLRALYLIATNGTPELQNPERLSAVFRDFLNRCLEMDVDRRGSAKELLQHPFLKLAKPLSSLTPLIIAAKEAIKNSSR
Chain of STK38/NDR1 (Q15208 whole entry): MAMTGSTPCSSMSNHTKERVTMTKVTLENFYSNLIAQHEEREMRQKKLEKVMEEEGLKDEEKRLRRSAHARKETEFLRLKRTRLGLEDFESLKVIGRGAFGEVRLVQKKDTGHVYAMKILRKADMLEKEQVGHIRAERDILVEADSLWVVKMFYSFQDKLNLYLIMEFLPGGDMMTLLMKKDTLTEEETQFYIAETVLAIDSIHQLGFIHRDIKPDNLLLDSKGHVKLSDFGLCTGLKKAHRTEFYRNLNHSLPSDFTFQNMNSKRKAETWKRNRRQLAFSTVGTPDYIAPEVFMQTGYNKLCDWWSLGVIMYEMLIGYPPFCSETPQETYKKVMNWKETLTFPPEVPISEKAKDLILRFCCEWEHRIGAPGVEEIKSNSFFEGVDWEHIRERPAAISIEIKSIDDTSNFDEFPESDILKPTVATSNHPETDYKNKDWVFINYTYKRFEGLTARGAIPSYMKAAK
Chain of CDK5/p35 (Q00535 whole entry): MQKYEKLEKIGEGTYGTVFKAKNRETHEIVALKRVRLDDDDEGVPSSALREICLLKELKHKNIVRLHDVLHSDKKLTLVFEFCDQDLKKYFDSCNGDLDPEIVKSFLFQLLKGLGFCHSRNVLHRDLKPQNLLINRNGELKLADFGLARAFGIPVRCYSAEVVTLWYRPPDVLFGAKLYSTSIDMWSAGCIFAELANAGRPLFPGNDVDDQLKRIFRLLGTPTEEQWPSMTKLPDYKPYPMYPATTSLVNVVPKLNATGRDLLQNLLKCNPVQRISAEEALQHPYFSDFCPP
Chain of CDK5/p35 (Q15078 whole entry partner): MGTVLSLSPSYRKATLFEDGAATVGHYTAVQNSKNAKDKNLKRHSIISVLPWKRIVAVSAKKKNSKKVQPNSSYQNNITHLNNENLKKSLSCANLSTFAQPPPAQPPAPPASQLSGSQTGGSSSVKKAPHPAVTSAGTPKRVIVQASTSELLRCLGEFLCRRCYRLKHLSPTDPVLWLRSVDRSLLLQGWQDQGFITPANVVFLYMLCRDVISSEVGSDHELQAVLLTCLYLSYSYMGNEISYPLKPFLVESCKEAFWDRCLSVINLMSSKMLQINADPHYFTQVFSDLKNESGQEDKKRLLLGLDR

Row | Structure (SMILES) | % enzyme activity at 1 μM (BMPR2) | % enzyme activity (CDK5/p35) [%] | % enzyme activity (MAK) [%] | % enzyme activity (P38d/MAPK13) [%] | % enzyme activity (PAK3) [%] | % enzyme activity (STK38/NDR1) [%] | remaining activity at 1 µM (c-MER) [%] | remaining activity at 1 µM (CDK3/cyclin E2) [%] | remaining activity at 1 µM (PKMYT1) [%] | remaining activity at 1 µM (STK38L/NDR2) [%]
1 | COc1cc(-c2cncc(-c3ccc(N4CCN(C)CC4)cc3)c2C)cc(F)c1C(N)=O [Compound 26a, 2-Fluoro-6-methoxy-4-(4-methyl-5-(4-(4-methylpiperazin-1-yl)phenyl)pyridin-3-yl)benzamide] | 89.1% and 88.4% | 95.26 | 98.28 | 98.26 | 87.14 | 90.38 | 100 | 89.5 | 101 | 99.4
2 | COc1cc(-c2cncc(-c3ccc(N4C[C@@H](C)N(C)[C@@H](C)C4)cc3)c2C)cc(F)c1C(N)=O [Compound 26c, 2-Fluoro-6-methoxy-4-(4-methyl-5-(4-((3R,5S)-3,4,5-trimethylpiperazin-1-yl)phenyl)pyridin-3-yl)benzamide] | 104% and 100% | 96.90 | 100.81 | 97.52 | 124.21 | 93.15 | 101 | 86.2 | 94.5 | 104
